Measurements from paper PMC8044046 (European journal of medicinal chemistry, 2021).

Legend:
Experiment in all cases: CellTiter Glo cell viability
Format in all cases: cell-based
[1] = system: BT-474 (HER2+) breast cancer cell line; conditions: read-out: IC50 (μM) BT-474 (HER2+); antiproliferative activity, 72 h, N=3, ±S.E
MCF-7 (HER2−) cell line = conditions: read-out: IC50 (μM) MCF-7 (HER2−); antiproliferative activity, 72 h, N=3
[2] = system: Calu-3 (HER2+) lung cancer cell line; conditions: read-out: IC50 (μM) Calu-3 (HER2+); antiproliferative activity, 72 h, N=3, ±S.E
[3] = system: A549 (HER2+) NSCLC cell line; conditions: read-out: IC50 (μM) A549 (HER2+); antiproliferative activity, 72 h, N=3, ±S.E

Measured: IC50

H2N-K(S-(3-amino-3(biphenyl)propionic acid)F-OH [Control]
> 100 µM: [1] | MCF-7 (HER2−) cell line | [2] | [3]
